The source made the active and inactive calls. Rule as the data show it, for most assays here: actives have a measured Kd and inactives only a lower limit.
Columns and labels:
[1] = biological target: Serine/threonine-protein kinase MRCK beta (Homo sapiens, UniProt Q9Y5S2)
[2] = biological target: Serine/threonine-protein kinase SIK3 (Homo sapiens, UniProt Q9Y2K2)
[3] = biological target: T1, Serine/threonine-protein kinase 4 (Homo sapiens, UniProt Q13043)
T1 sequence (Q13043 whole entry): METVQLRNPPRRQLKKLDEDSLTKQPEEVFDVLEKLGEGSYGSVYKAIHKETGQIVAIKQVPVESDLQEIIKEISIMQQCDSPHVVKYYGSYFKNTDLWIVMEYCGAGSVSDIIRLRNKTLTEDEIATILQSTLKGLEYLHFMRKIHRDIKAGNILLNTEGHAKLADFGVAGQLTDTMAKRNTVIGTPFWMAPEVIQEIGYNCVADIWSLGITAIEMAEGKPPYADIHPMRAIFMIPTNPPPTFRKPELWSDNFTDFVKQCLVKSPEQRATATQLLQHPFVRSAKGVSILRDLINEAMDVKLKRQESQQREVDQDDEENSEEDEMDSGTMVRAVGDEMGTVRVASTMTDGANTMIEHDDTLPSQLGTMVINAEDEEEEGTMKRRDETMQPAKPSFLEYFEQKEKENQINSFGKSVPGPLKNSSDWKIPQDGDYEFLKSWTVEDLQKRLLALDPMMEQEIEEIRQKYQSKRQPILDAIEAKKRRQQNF

[4] = biological target: Cyclin-dependent kinase 1 (Homo sapiens, UniProt P06493)
Aurora kinase A = biological target: T2, Aurora kinase A (Homo sapiens, UniProt O14965)
T2 sequence (O14965 whole entry): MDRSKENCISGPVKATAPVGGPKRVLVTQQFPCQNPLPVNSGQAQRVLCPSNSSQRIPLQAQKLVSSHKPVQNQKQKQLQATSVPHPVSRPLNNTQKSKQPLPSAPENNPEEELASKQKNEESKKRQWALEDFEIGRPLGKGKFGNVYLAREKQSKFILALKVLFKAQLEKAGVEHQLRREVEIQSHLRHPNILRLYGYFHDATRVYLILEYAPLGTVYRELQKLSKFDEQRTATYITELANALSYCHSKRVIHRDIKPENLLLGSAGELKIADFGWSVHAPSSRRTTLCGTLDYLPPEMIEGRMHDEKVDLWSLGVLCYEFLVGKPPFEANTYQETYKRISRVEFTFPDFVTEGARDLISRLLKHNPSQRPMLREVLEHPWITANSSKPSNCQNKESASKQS

Insulin receptor = Insulin receptor (Homo sapiens, UniProt P06213)
[5] = biological target: T3, Dual specificity mitogen-activated protein kinase kinase 3 (Homo sapiens, UniProt P46734)
T3 sequence (P46734 whole entry): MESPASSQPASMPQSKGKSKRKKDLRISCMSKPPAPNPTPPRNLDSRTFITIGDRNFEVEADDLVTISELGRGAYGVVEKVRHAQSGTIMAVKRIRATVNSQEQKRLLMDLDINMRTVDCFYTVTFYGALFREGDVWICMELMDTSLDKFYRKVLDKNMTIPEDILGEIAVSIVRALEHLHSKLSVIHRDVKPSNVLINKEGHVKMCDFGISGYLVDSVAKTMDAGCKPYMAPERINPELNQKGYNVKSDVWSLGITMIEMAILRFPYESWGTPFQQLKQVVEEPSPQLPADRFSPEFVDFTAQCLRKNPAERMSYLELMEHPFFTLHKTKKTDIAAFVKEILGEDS

[6] = biological target: Protein-tyrosine kinase 2-beta (Homo sapiens, UniProt Q14289)
[7] = biological target: T4, Cytochrome c1, heme protein, mitochondrial (Homo sapiens, UniProt P08574)
T4 sequence (P08574 whole entry): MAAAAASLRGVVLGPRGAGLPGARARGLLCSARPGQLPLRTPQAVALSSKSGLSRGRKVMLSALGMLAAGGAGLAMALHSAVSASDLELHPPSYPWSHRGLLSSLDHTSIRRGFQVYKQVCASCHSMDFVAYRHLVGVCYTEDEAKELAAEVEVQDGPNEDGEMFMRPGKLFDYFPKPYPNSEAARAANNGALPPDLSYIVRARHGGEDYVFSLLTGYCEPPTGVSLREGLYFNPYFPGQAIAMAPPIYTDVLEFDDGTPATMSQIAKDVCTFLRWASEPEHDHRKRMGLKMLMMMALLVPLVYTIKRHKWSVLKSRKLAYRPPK

[8] = biological target: Cyclin-dependent kinase 3 (Homo sapiens, UniProt Q00526)
[9] = biological target: Ribosomal protein S6 kinase alpha-4 (Homo sapiens, UniProt O75676)
DNA topoisomerase 2-beta = DNA topoisomerase 2-beta (Homo sapiens, UniProt Q02880)
[10] = biological target: T5, Serine/threonine-protein kinase Nek3 (Homo sapiens, UniProt P51956)
T5 sequence (P51956 whole entry): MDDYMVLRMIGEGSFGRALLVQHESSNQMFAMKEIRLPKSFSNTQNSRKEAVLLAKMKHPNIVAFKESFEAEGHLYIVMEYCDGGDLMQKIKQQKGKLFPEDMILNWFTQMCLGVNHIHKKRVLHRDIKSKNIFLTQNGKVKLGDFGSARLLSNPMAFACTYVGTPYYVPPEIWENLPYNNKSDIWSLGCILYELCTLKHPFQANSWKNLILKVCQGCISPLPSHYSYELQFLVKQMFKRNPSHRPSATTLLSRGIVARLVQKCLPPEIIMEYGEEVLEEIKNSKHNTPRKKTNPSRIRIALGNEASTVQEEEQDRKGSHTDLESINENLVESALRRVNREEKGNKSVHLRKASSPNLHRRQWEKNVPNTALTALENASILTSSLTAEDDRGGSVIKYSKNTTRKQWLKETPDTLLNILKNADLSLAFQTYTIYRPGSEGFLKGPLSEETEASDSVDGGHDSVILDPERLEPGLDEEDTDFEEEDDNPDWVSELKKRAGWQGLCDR

[11] = biological target: Receptor-interacting serine/threonine-protein kinase 3 (Homo sapiens, UniProt Q9Y572)
[12] = biological target: Tyrosine-protein kinase HCK (Homo sapiens, UniProt P08631)
[13] = biological target: cAMP-dependent protein kinase catalytic subunit alpha (Homo sapiens, UniProt P17612)
Also: in the data inactive means no Kd found up to 30 µM.

Sequence of Receptor-interacting serine/threonine-protein kinase 3 (Q9Y572 whole entry): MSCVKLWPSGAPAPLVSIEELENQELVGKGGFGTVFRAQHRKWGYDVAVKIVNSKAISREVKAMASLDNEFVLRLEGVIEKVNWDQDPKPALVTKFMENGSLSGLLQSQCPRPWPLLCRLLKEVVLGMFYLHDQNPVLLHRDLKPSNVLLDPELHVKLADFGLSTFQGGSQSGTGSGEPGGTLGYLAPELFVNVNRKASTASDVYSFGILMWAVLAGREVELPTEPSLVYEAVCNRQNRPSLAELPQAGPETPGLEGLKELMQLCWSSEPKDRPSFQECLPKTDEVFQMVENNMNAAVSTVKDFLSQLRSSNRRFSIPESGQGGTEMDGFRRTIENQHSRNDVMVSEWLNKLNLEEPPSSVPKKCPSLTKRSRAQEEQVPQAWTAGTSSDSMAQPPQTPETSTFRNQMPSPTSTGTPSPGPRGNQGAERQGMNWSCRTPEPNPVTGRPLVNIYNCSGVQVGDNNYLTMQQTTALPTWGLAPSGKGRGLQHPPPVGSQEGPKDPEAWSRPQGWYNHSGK
Sequence of DNA topoisomerase 2-beta (Q02880 whole entry): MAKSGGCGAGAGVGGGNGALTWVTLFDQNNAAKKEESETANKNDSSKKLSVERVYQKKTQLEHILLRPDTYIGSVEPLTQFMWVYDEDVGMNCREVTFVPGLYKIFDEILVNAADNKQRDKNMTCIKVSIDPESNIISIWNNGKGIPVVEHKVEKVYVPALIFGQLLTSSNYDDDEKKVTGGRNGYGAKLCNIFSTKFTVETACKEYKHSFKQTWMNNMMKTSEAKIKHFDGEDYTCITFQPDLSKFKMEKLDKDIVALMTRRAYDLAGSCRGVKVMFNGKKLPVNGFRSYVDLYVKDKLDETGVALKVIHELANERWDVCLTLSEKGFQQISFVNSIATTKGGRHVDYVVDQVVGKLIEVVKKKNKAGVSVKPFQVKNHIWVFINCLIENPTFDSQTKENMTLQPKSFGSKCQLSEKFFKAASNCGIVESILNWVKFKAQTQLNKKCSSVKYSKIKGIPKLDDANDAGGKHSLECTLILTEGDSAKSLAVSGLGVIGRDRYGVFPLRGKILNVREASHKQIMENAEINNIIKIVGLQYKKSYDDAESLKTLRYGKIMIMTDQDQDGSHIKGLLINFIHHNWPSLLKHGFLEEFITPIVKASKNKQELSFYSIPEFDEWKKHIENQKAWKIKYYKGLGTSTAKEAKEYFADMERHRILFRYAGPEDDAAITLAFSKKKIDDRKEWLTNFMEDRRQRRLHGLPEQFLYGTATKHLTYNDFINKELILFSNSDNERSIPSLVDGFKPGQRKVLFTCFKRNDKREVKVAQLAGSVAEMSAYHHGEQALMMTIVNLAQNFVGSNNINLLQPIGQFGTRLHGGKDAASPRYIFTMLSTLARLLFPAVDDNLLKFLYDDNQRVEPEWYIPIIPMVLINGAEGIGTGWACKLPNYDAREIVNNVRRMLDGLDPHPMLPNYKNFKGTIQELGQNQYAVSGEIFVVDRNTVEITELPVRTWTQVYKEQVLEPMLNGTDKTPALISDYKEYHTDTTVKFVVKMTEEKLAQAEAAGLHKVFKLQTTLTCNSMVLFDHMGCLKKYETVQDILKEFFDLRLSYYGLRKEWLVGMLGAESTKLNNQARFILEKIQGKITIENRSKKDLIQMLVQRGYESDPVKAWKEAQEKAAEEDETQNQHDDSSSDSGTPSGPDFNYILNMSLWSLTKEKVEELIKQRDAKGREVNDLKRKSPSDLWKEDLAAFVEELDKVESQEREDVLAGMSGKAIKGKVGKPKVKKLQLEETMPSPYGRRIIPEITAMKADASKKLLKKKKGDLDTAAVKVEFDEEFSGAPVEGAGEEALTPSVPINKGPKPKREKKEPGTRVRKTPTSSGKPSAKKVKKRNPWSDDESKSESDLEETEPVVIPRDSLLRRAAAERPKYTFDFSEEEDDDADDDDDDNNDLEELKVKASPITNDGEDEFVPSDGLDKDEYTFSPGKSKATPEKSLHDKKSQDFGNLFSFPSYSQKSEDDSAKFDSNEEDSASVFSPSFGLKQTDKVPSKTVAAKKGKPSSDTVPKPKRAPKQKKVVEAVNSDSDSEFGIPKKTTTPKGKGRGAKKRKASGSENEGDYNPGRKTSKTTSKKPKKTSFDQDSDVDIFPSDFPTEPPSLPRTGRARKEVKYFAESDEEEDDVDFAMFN
Sequence of Protein-tyrosine kinase 2-beta (Q14289 whole entry): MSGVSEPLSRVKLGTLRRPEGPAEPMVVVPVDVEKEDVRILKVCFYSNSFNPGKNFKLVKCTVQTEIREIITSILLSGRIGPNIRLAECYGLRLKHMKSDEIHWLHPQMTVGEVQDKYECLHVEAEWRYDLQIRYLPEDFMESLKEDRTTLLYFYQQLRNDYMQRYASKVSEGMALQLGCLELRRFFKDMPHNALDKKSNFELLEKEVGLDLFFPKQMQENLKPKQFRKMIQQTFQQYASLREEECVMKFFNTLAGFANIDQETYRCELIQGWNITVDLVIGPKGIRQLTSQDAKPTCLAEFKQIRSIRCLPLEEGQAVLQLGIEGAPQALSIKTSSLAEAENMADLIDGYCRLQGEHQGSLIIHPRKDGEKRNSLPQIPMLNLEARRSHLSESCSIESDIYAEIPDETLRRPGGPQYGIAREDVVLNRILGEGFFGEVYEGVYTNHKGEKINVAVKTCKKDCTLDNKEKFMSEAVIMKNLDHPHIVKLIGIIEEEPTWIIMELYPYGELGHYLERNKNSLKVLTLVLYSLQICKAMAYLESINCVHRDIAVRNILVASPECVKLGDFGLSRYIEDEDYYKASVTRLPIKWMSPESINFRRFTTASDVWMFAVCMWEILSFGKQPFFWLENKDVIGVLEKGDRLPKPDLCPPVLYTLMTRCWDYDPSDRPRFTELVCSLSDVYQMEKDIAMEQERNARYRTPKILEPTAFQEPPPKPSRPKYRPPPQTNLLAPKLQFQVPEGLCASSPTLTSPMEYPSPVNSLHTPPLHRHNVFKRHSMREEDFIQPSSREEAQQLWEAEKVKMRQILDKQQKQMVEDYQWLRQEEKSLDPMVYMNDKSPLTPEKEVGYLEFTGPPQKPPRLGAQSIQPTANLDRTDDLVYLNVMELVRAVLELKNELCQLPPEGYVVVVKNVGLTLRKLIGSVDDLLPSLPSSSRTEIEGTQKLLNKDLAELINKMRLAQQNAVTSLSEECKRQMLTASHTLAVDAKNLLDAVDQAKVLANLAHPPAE
Sequence of Tyrosine-protein kinase HCK (P08631 whole entry): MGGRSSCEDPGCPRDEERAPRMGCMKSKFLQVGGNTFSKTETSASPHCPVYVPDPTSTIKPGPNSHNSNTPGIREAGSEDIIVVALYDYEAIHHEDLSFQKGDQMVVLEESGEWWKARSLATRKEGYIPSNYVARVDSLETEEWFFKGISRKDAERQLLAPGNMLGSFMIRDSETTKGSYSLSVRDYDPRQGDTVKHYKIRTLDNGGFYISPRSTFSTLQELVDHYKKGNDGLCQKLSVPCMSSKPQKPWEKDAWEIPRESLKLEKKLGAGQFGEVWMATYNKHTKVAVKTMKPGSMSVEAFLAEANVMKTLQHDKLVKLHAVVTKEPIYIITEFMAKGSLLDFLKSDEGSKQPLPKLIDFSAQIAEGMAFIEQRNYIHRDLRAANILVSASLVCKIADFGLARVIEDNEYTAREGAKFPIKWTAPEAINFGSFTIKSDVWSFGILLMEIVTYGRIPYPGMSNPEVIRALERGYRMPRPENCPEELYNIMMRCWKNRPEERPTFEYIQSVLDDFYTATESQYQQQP
Sequence of Ribosomal protein S6 kinase alpha-4 (O75676 whole entry): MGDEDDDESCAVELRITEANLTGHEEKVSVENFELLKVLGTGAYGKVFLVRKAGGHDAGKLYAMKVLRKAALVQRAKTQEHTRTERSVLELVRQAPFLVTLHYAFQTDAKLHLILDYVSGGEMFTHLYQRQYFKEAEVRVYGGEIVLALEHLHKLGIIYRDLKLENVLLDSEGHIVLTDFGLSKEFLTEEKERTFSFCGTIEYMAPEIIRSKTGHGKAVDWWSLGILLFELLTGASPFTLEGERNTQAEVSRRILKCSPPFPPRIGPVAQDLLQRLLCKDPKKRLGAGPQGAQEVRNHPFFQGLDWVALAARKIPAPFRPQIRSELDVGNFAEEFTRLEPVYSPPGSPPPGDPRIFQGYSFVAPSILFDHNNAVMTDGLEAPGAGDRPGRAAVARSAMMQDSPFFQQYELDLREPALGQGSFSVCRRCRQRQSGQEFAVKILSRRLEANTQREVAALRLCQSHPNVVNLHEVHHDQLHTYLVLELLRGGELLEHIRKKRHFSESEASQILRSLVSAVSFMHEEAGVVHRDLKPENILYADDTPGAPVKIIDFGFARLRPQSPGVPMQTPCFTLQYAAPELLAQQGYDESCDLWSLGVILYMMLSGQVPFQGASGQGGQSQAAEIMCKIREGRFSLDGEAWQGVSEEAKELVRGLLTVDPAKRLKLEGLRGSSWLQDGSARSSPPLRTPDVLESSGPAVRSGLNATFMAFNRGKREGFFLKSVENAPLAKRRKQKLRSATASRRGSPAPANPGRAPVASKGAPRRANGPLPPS
Sequence of Cyclin-dependent kinase 3 (Q00526 whole entry): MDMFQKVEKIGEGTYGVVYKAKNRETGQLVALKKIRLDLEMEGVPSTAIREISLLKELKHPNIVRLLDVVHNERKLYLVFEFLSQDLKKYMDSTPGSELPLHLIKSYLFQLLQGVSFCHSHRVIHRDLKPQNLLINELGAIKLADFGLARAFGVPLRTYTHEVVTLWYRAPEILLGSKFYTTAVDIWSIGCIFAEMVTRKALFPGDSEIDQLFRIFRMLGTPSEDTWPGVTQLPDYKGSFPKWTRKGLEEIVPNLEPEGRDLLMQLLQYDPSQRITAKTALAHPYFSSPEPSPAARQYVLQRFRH
Sequence of Cyclin-dependent kinase 1 (P06493 whole entry): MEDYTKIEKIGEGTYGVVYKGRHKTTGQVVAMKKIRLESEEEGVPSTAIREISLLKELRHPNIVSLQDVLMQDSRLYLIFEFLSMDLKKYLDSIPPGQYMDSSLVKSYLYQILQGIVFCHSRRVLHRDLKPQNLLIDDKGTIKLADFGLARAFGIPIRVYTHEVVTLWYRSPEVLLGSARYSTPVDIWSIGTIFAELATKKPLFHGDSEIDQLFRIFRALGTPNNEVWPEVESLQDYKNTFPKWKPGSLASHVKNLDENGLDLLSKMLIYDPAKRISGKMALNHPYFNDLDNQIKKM

Kd [1]	Kd [2]	Kd [3]	Kd [4]	Kd (Aurora kinase A)	Kd (Insulin receptor)	Kd [5]	Kd [6]	Kd [7]	Kd [8]	Kd [9]	Kd (DNA topoisomerase 2-beta)	Kd [10]	Kd [11]	Kd [12]	Kd [13]	Structure (SMILES)
> 30 µM (inactive)	> 30 µM (inactive)	> 30 µM (inactive)	> 30 µM (inactive)	> 30 µM (inactive)	> 30 µM (inactive)	> 30 µM (inactive)	> 30 µM (inactive)	> 30 µM (inactive)	> 30 µM (inactive)	> 30 µM (inactive)	0.936 µM (active)	> 30 µM (inactive)	> 30 µM (inactive)	> 30 µM (inactive)	> 30 µM (inactive)	C[C@@H](Nc1cc(F)cc(F)c1)c1cc(C(=O)N(C)C)cc2c(=O)cc(N3CCOCC3)oc12 [AZD-8186]
> 30 µM (inactive)	> 30 µM (inactive)	> 30 µM (inactive)	> 30 µM (inactive)	> 30 µM (inactive)	> 30 µM (inactive)	> 30 µM (inactive)	> 30 µM (inactive)	> 30 µM (inactive)	> 30 µM (inactive)	> 30 µM (inactive)	> 30 µM (inactive)	> 30 µM (inactive)	> 30 µM (inactive)	> 30 µM (inactive)	> 30 µM (inactive)	Cc1cc([C@@H](C)Nc2ccccc2C(=O)O)c2nc(N3CCOCC3)cc(=O)n2c1 [AZD-6482]
> 30 µM (inactive)	> 30 µM (inactive)	> 30 µM (inactive)	> 30 µM (inactive)	> 30 µM (inactive)	> 30 µM (inactive)	> 30 µM (inactive)	> 30 µM (inactive)	> 30 µM (inactive)	> 30 µM (inactive)	> 30 µM (inactive)	> 30 µM (inactive)	> 30 µM (inactive)	> 30 µM (inactive)	> 30 µM (inactive)	3.6 µM (active)	CCS(=O)(=O)N1CC(CC#N)(n2cc(-c3ncnc4[nH]ccc34)cn2)C1 [BARICITINIB]
> 30 µM (inactive)	> 30 µM (inactive)	> 30 µM (inactive)	> 30 µM (inactive)	> 30 µM (inactive)	> 30 µM (inactive)	> 30 µM (inactive)	> 30 µM (inactive)	> 30 µM (inactive)	> 30 µM (inactive)	> 30 µM (inactive)	> 30 µM (inactive)	> 30 µM (inactive)	> 30 µM (inactive)	> 30 µM (inactive)	> 30 µM (inactive)	CN1N=C(N)c2cn([C@@H]3O[C@H](COP(=O)(O)O)[C@@H](O)[C@H]3O)c3ncnc1c23 [TRICIRIBINE PHOSPHATE]
> 30 µM (inactive)	> 30 µM (inactive)	> 30 µM (inactive)	> 30 µM (inactive)	> 30 µM (inactive)	> 30 µM (inactive)	> 30 µM (inactive)	> 30 µM (inactive)	> 30 µM (inactive)	> 30 µM (inactive)	> 30 µM (inactive)	> 30 µM (inactive)	> 30 µM (inactive)	0.368 µM (active)	> 30 µM (inactive)	> 30 µM (inactive)	CNC(=O)c1cc(Oc2ccc(NC(=O)Nc3ccc(Cl)c(C(F)(F)F)c3)c(F)c2)ccn1 [REGORAFENIB]
> 30 µM (inactive)	0.206 µM (active)	> 30 µM (inactive)	> 30 µM (inactive)	> 30 µM (inactive)	> 30 µM (inactive)	> 30 µM (inactive)	> 30 µM (inactive)	> 30 µM (inactive)	> 30 µM (inactive)	> 30 µM (inactive)	> 30 µM (inactive)	0.353 µM (active)	> 30 µM (inactive)	> 30 µM (inactive)	> 30 µM (inactive)	O=C(Nc1ccc(-c2ccnc(Nc3ccc(N4CCOCC4)cc3)n2)cc1)C1CCCN1 (stereo not drawn) [XL-019]
> 30 µM (inactive)	> 30 µM (inactive)	> 30 µM (inactive)	> 30 µM (inactive)	> 30 µM (inactive)	> 30 µM (inactive)	> 30 µM (inactive)	> 30 µM (inactive)	> 30 µM (inactive)	> 30 µM (inactive)	> 30 µM (inactive)	> 30 µM (inactive)	> 30 µM (inactive)	> 30 µM (inactive)	> 30 µM (inactive)	> 30 µM (inactive)	CNS(=O)(=O)Nc1nccc(Cc2c(C)c3ccc(Oc4ncccn4)cc3oc2=O)c1F [AVUTOMETINIB]
> 30 µM (inactive)	> 30 µM (inactive)	> 30 µM (inactive)	> 30 µM (inactive)	> 30 µM (inactive)	> 30 µM (inactive)	> 30 µM (inactive)	> 30 µM (inactive)	> 30 µM (inactive)	> 30 µM (inactive)	> 30 µM (inactive)	> 30 µM (inactive)	> 30 µM (inactive)	2.08 µM (active)	> 30 µM (inactive)	> 30 µM (inactive)	CCCS(=O)(=O)Nc1ccc(F)c(C(=O)c2c[nH]c3ncc(-c4ccc(Cl)cc4)cc23)c1F [VEMURAFENIB]
> 30 µM (inactive)	> 30 µM (inactive)	> 30 µM (inactive)	> 30 µM (inactive)	> 30 µM (inactive)	> 30 µM (inactive)	> 30 µM (inactive)	> 30 µM (inactive)	> 30 µM (inactive)	> 30 µM (inactive)	> 30 µM (inactive)		> 30 µM (inactive)	> 30 µM (inactive)	> 30 µM (inactive)	> 30 µM (inactive)	C[C@@H](c1ccc2nccn2c1)n1nnc2ncc(-c3cnn(C)c3)nc21 [SAVOLITINIB]
> 30 µM (inactive)	> 30 µM (inactive)	> 30 µM (inactive)		> 30 µM (inactive)	> 30 µM (inactive)	> 30 µM (inactive)	> 30 µM (inactive)	> 30 µM (inactive)	> 30 µM (inactive)	> 30 µM (inactive)	> 30 µM (inactive)	> 30 µM (inactive)	> 30 µM (inactive)	> 30 µM (inactive)	> 30 µM (inactive)	CN(C)C(=O)c1cc2cnc(Nc3ccc(N4CCNCC4)cn3)nc2n1C1CCCC1 [RIBOCICLIB]

From ChEMBL document CHEMBL3991601, “The target landscape of clinical kinase drugs” (Science, 2017)
